How the values were obtained:
Interleukin-1β = test: Serum ELISA after dietary supplementation; type: in vivo, Gallus gallus domesticus; conditions: dietary supplementation 35 days, between groups
Excerpt: (§1) A total of 189 male or female 2-day-old G. g. domesticus were randomly assigned to seven dietary treatment groups, including rEP (0.75, 1.5, 3.0, 6.0 and 12%), spiraline-A (Juily Pharmaceutical Co., LTD. San Sia, Taipei Hsien, Taiwan), and basal diet groups. Each treatment group consisted of one cage with twenty-seven G. g. domesticus. The composition of the fodder is presented in S1b–S1d Table. The animals were allowed ad libitum access to fodder and water for the duration of the trial, beginning from 3 days of age. The total time of feeding was 35 days. The G. g. domesticus were maintained in a cage (animal container) with a constant environment (28.9–37.8°C, 12/12 h light-dark cycle). rEP fodder and fecal sewage were not directly discharged to the outside.
(§2) Body weight and survival rate were monitored daily during the experimental period. The weight gain, feed efficiency (FE), protein efficiency ratio (PER), and survival percentage were calculated. After 35 days of treatment, the G. g. domesticus were euthanized, blood samples were collected and serum was obtained by centrifugation (3000 ×g for 15 min at 4°C). Serum was kept at -80°C until analysis. Enzyme-linked immunosorbent assay (ELISA) was performed in accordance with the manufacturer’s standard procedures to determine the levels of immunological factors, including TNF-α, Interleukin-1β, Interleukin-6, Interleukin-10, Lysozyme, Immunoglobin-G (IgG), and Interferon-γ. Chicken serum samples were analyzed with ELISA kits from ABclonal Inc. (Woburn, MA, USA). After the reaction was completed, the optical density (OD) was measured at 450 nm on a microplate reader (SpectraMax® i3, Molecular Devices, Lagerhausstrasse, Wals, Austria).

Lysozyme = test: Serum ELISA after dietary supplementation; type: in vivo, Gallus gallus domesticus; conditions: dietary supplementation 35 days, between groups
Excerpt: as §1, §2

Interleukin-10 = test: Serum ELISA after dietary supplementation; type: in vivo, Gallus gallus domesticus; conditions: rEP-supplemented group, 35 days, compared to control group (P = 0.0341), not different than the antibiotic group
Excerpt: as §1, §2

Interferon-γ = test: Serum ELISA after dietary supplementation; type: in vivo, Gallus gallus domesticus; conditions: 1.5% in diet, 35 days, compared to antibiotic group (P = 0.0043) and control group (P = 0.0073)
Excerpt: as §1, §2

TNF-α = test: Serum ELISA after dietary supplementation; type: in vivo, Gallus gallus domesticus; conditions: dietary supplementation 35 days, between groups
Excerpt: as §1, §2

Interleukin-6 = test: Serum ELISA after dietary supplementation; type: in vivo, Gallus gallus domesticus; conditions: dietary supplementation 35 days, between groups
Excerpt: as §1, §2

K. oxytoca = test: Inhibition zone assay, flask culture supernatant; type: cell-based, Klebsiella oxytoca; conditions: flask culture supernatant after 5 days of methanol induction
Description: (§3) All assays were performed in triplicate.
Fig 4 Antimicrobial activity of rEP produced in P. pastoris by flask and fermenter methods. (a) rEP concentration in the yeast culture supernatant before and after induction with methanol for 24 h to 120 h in flask culture. […] The marker “-” represents Gram-negative; “+” represents Gram-positive. (b) The antibacterial activity of rEP produced by the fermenter method. Yeast were induced with methanol from 24 h to 120 h in a fermenter.

[1] = test system: Escherichia coli (BCRC 10675); test: Inhibition zone (disk diffusion) assay; type: cell-based; conditions: then disk diffusion 16 h at 37°C
Description: as §3
(§4) The antimicrobial activity of rEP from flask cultures was evaluated by determining its ability to prevent growth of Gram-positive and Gram-negative bacteria with a disk diffusion assay. […] The most susceptible pathogens were R. anatipestifer (CFC27) and R. anatipestifer (CFC437) (Table 3a). Next, we investigated the thermostability of flask-fermented rEP with regard to its toxicity toward S. aureus (BCRC 10780), E. coli (BCRC 10675) and P. aeruginosa (ATCC 19660). Empty vector with no insert in P. pastoris was used as a control. Thermostability was measured by disk diffusion assay after cultures were incubated for 5 min at 40, 60, 80, or 100°C (Table 3b).

[2] = test system: Pseudomonas aeruginosa (ATCC 19660); test: Inhibition zone (disk diffusion) assay; type: cell-based; conditions: then disk diffusion 16 h at 37°C
Description: as §3, §4

[3] = test system: Riemerella anatipestifer (CFC437); test: Inhibition zone (disk diffusion) assay; type: cell-based; conditions: disk paper 16 h at 37°C, shake-flask supernatant 120 h after induction
Description: as §3, §4

[4] = test system: Riemerella anatipestifer (CFC27); test: Inhibition zone (disk diffusion) assay; type: cell-based; conditions: disk paper 16 h at 37°C, shake-flask supernatant 120 h after induction
Description: as §3, §4

[5] = test system: Riemerella anatipestifer (RA3); test: Inhibition zone (disk diffusion) assay; type: cell-based; conditions: disk paper 16 h at 37°C, shake-flask supernatant 120 h after induction
Description: as §3, §4

[6] = test system: Staphylococcus aureus (BCRC 10780); test: Inhibition zone (disk diffusion) assay; type: cell-based; conditions: then disk diffusion 16 h at 37°C
Description: as §3, §4

duodenum villus = test: Intestinal morphology, histological analysis; type: in vivo, Gallus gallus domesticus; conditions: rEP animals compared to the control group, hematoxylin and eosin staining (S3 Fig)
Description: The growth promoting action of EP may be related to intestinal absorption and as such, small villus morphology was evaluated in a previous study. […] Moreover, growth enhancement has been observed in other reports. For example, feeding mice with PR39 peptide (4.7 kDa proline-rich AMP)-expressing Lactobacillus casei caused jejunum and duodenum villus height in the intestinal villi to increase. Use of recombinant porcine β-defensin 2 (rpBD2) as a feed additive for weaned piglets also produced increases in intestinal villus height of the duodenum and jejunum. Additionally, birds fed with AMP-A3 diet had increased villus height of the duodenum, jejunum and ileum. […] Fig). […] Supplementary file pone.0230021.s003.TIF: S3 Fig Effects of orally administered a rEP on posture, body weight, intestinal morphology, and gut flora. (a) After 28 days of feeding the 1.5% rEP-receiving chickens were larger than the spiraline A and basal diet controls. (b) The effects of feeding 1.5% rEP on body weight. (c) Representative picture of hematoxylin and eosin staining of intestinal villi and crypts. (d) The intestinal villus length and crypt depth were measured. (e) The effects of orally administrated the spiraline A, basal diet, and 1.5% rEP on intestinal microflora in G. g. domesticus. Relative proportions of bacterial families are shown. […]

[7] = thermostability: flask supernatant incubated 5 min at 40°C
[8] = thermostability: flask supernatant incubated 5 min at 60°C
[9] = thermostability: flask supernatant incubated 5 min at 80°C

Sequence: EFFIFHIIKGLFHAGRMIHGLVNRRRHRHHHHHH [rEP, recombinant His-tagged Epinephelus lanceolatus piscidin from Pichia pastoris, used as crude culture supernatant or spray-dried powder]
- Serum IL-1β level (Interleukin-1β): No significant changes
- Serum Lysozyme (Lyz) level (Lysozyme): No significant changes
- Serum IL-10 level (Interleukin-10): significantly higher
- Serum IFN-γ level (Interferon-γ): significantly increased
- Serum TNF-α level (TNF-α): No significant changes
- Serum IL-6 level (Interleukin-6): No significant changes
- Inhibition zone (K. oxytoca): large inhibition zones
- Inhibition zone diameter after heat treatment [1, 7]: 9.0±1.0 mm
- Inhibition zone diameter after heat treatment [1, 8]: 9.0±1.0 mm
- Inhibition zone diameter after heat treatment [1, 9]: 8.6±0.5 mm
- Inhibition zone diameter after heat treatment [2, 7]: 10.1±0.3 mm
- Inhibition zone diameter after heat treatment [2, 8]: 9.5±0.2 mm
- Inhibition zone diameter ([3]; first of two values printed): 11 mm
- Inhibition zone diameter ([3]; second of two values printed): 13 mm
- Inhibition zone diameter ([4]; first of two values printed): 12 mm
- Inhibition zone diameter ([4]; second of two values printed): 14 mm
- Inhibition zone diameter ([5]; first of two values printed): 10, 10 mm
- Inhibition zone diameter ([5]; second of two values printed): 10, 10 mm
- Inhibition zone diameter after heat treatment [6, 7]: 10.6±1.5 mm
- Inhibition zone diameter after heat treatment [6, 8]: 9.1±0.7 mm
- Inhibition zone diameter after heat treatment [6, 9]: 9.3±0.5 mm
- Inhibition zone diameter after heat treatment ([6]; thermostability: flask supernatant incubated 5 min at 100°C): 9.3±0.5 mm
- Duodenum villus height (duodenum villus): significantly greater
